Literature values as cited in US20070148240A1, “Oral formulation containing itraconazole and methods for manufacturing and using the same” (priority 2005, published 2007).

Columns and labels:
[1] = not given; remark: listed apart in the source

Row | Compound | binding rate with plasma proteins (plasma proteins) | solubility in acids (in acids such as hydrochloric acid, acetic acid, phosphoric acid and methylsulfonic acid) | solubility in ethanol (in ethanol) | solubility in methylene chloride (in methylene chloride) | solubility in water (in water) | time to reach peak concentration in plasma ([1]; after being taken by patients) | concentration in blood relative to that in plasma ([1]; human, in vivo) | itraconazole in original form excreted in feces ([1]; human, in vivo) | itraconazole in original form secreted in urine ([1]; human, in vivo) | plasma half life ([1]; human, in vivo) | itraconazole metabolites secreted in urine ([1]; within a week after uptake of the drug) | antifungal activity in vitro (fungi)
1 | CCC(C)n1ncn(-c2ccc(N3CCN(c4ccc(OC[C@H]5CO[C@](Cn6cncn6)(c6ccc(Cl)cc6Cl)O5)cc4)CC3)cc2)c1=O (mixture of isomers) [itraconazole, (±)-cis-4-[4-[4-[4-[[2-(2,4-dichlorophenyl)-2-(1H-1,2,4-triazol-1-ylmethyl)-1,3-dioxolan-4-yl]methoxy]phenyl]-1-piperazinyl]phenyl]-2,4-dihydro-2-(1-methylpropyl)-3H-1,2,4-triazol-3-one] | 99.8% | easily soluble | low | easily soluble | less than 1 μg/ml | 3 to 4 h | about 60% | 3-18% | ≤ 0.03% | 24 to 36 h | About 35% | –
2 | hydroxy-itraconazole | – | – | – | – | – | – | – | – | – | – | – | has been demonstrated in vitro to have antifungal activity
